Patent US5310881A, “Glycosaminoglycan-modified protein” (Seikagaku Corporation, priority 1990, dated 1994)

Tested on: mouse ischemic foot edema
Experiment: Effect on mouse ischemic foot edema
Type: in vivo, ddy male mouse
Conditions: given just before ischemia, HA 26.71 mg
Experimental: A ddy male mouse aged 8 weeks is kept in a keeping device and the right hind leg is tied around with a suture (Brain No. 2). One end of the suture is fixed while a weight of 500 g is suspended from another end of the suture. Thus, ischemia is conducted for a definite period of time. Before the ischemia and 60 minutes thereafter, the thickness of the foot-pad of the animal was measured with slide calipers. Then, the foot-pad is cut and weighed. To a control group, a physiological saline is intravenously administered immediately before the initiation of the ischemia. To test groups, specimen shown in Table 6 was administered 30 minutes before the initiation of the ischemia and immediately before the same. Each group has 5 animals. The catarase used as a specimen was originated from bovine liver. The HA-catalase used was prepared as follows. 10 mg of the HA-catalase of lot No. 120-1 was dissolved in 5.2 ml of a physiological saline and filtered through a membrane of 0.22 μm (Milex GV; mfd. by Nippon Millipore Kogyo K.K.). 1 ml portions of the filtrate were distributed to ampuls to give a preparation for injection. The preparation contained 600 U of the enzyme per ampul.
The effects were calculated in accordance with the following equations. [formula] It is believed that a sample showing A of 40 or more is effective. [formula] It is believed that a sample showing A of 60 or more is effective.

With hyaluronic acid [HA] the “Effect A” value was 22 and the “Effect B” value was 35.
